Results reported in the NIST ThermoML archive (doi:10.1016/j.jct.2006.05.008).

Test: molar heat capacity at constant pressure; wn = mass fraction of the nth substance listed
Settings: Small (less than 1 g) adiabatic calorimetry

CCCCn1cc[n+](C)c1.[Br-] [1-butyl-3-methylimidazolium bromide] + O
Crystal
Settings	molar heat capacity at constant pressure [J/K/mol]
257.1 K, w2 = 0.0169	211.52
257.12 K, w2 = 0.00482	207.32
257.24 K, w2 = 0.0495	210.08
257.33 K, w2 = 0.0051	208.6
257.89 K, w2 = 0.00482	208.45
258.27 K, w2 = 0.0051	209.35
258.32 K, w2 = 0.00482	208.23
258.68 K, w2 = 0.00482	208.41
258.78 K, w2 = 0.0169	213.4
259.16 K, w2 = 0.0169	213.8
259.51 K, w2 = 0.0495	213.48
259.61 K, w2 = 0.0051	210.47
259.93 K, w2 = 0.0051	210.82
259.98 K, w2 = 0.00482	210.49
260.24 K, w2 = 0.00482	209.97
260.65 K, w2 = 0.00482	210.2
260.87 K, w2 = 0.0169	215.76
260.94 K, w2 = 0.0051	211.8
261.22 K, w2 = 0.0169	216.33
261.77 K, w2 = 0.0495	217.08
262.06 K, w2 = 0.00482	211.93
262.28 K, w2 = 0.0051	212.88
262.52 K, w2 = 0.0051	213.06
262.95 K, w2 = 0.0169	218.39
262.98 K, w2 = 0.00482	212.09
263.28 K, w2 = 0.0169	218.78
263.78 K, w2 = 0.0051	214.35
264.01 K, w2 = 0.0495	220.81
264.14 K, w2 = 0.00482	213.82
265.04 K, w2 = 0.0169	221.03
265.12 K, w2 = 0.0051	215.36
265.24 K, w2 = 0.0051	215.65
265.32 K, w2 = 0.00482	214.05
265.34 K, w2 = 0.0169	221.47
266.23 K, w2 = 0.0495	224.56
266.24 K, w2 = 0.00482	216.31
266.58 K, w2 = 0.0051	216.86
267.13 K, w2 = 0.0169	223.7
267.4 K, w2 = 0.0169	224.14
267.66 K, w2 = 0.00482	216.04
267.71 K, w2 = 0.0051	217.69
268.43 K, w2 = 0.0495	228.48
269.22 K, w2 = 0.0169	226.58
269.45 K, w2 = 0.0169	226.98
270 K, w2 = 0.00482	218.06
270.31 K, w2 = 0.0051	220.13
270.61 K, w2 = 0.0495	232.41
271.3 K, w2 = 0.0169	229.49
271.51 K, w2 = 0.0169	229.82
272.34 K, w2 = 0.00482	220.16
272.91 K, w2 = 0.0051	222.62
273.18 K, w2 = 0.0495	242
273.57 K, w2 = 0.0169	232.77
275.36 K, w2 = 0.00482	223.11
275.51 K, w2 = 0.0051	225.17
275.62 K, w2 = 0.0169	235.94
276.24 K, w2 = 0.0495	247.28
277.2 K, w2 = 0.00482	225.01
278.11 K, w2 = 0.0051	227.74
279.23 K, w2 = 0.0169	242.23
279.26 K, w2 = 0.0495	254.65
279.32 K, w2 = 0.00482	227.27
279.78 K, w2 = 0.00482	229.54
280.71 K, w2 = 0.0051	230.48
281.42 K, w2 = 0.00482	229.46
282.24 K, w2 = 0.0495	262.55
283.31 K, w2 = 0.0051	233.23
283.5 K, w2 = 0.00482	230.68
284.39 K, w2 = 0.0169	251.43
285.17 K, w2 = 0.0495	271.18
285.58 K, w2 = 0.00482	233.7
285.91 K, w2 = 0.0051	236.24
287.66 K, w2 = 0.00482	235.67
288.14 K, w2 = 0.0495	280.22
288.51 K, w2 = 0.0051	239.25
289.53 K, w2 = 0.0169	262.01
289.74 K, w2 = 0.00482	238.04
290.97 K, w2 = 0.0495	290.4
291.11 K, w2 = 0.0051	242.54
291.83 K, w2 = 0.00482	240.73
293.7 K, w2 = 0.0051	246.11
293.74 K, w2 = 0.0495	300.57
293.9 K, w2 = 0.00482	243.2
294.65 K, w2 = 0.0169	274.42
295.05 K, w2 = 0.00482	246.53
295.98 K, w2 = 0.00482	245.88
296.3 K, w2 = 0.0051	249.8
296.46 K, w2 = 0.0495	310.98
298.06 K, w2 = 0.00482	248.83
298.89 K, w2 = 0.0051	253.84
299.11 K, w2 = 0.0495	321.36
299.76 K, w2 = 0.0169	289.83
300.14 K, w2 = 0.00482	252.27
301.49 K, w2 = 0.0051	258.28
301.7 K, w2 = 0.0495	332.6
303.76 K, w2 = 0.00482	260.04
304.07 K, w2 = 0.0051	263.07
304.21 K, w2 = 0.0495	344.68
306.66 K, w2 = 0.0051	268.79
306.66 K, w2 = 0.0495	358.21
309.04 K, w2 = 0.0495	371.9
309.23 K, w2 = 0.0051	274.95
311.81 K, w2 = 0.0051	281.91
314.38 K, w2 = 0.0051	289.81

101 kPa, Liquid
Settings	molar heat capacity at constant pressure [J/K/mol]
258.42 K, w2 = 0.0495	201.89
260.51 K, w2 = 0.0495	202.44
262.59 K, w2 = 0.0495	203.15
264.68 K, w2 = 0.0495	203.66
266.76 K, w2 = 0.0495	204.28
268.85 K, w2 = 0.0495	204.83
271.36 K, w2 = 0.0495	205.69
274.29 K, w2 = 0.0495	206.48
277.23 K, w2 = 0.0495	207.26
280.16 K, w2 = 0.0495	208.13
283.1 K, w2 = 0.0495	209.06
286.03 K, w2 = 0.0495	209.95
288.97 K, w2 = 0.0495	210.91
291.91 K, w2 = 0.0495	211.72
294.84 K, w2 = 0.0495	212.72
297.78 K, w2 = 0.0495	213.47
300.72 K, w2 = 0.0495	214.41
303.65 K, w2 = 0.0495	215.41
306.59 K, w2 = 0.0495	216.44
309.53 K, w2 = 0.0495	217.39
312.47 K, w2 = 0.0495	218.35
315.41 K, w2 = 0.0495	219.31
321.27 K, w2 = 0.0495	221.21
330.56 K, w2 = 0.0495	224.12
333.86 K, w2 = 0.0495	225.96
337.13 K, w2 = 0.0495	227.18
340.39 K, w2 = 0.0495	228.38
343.64 K, w2 = 0.0495	229.51
346.87 K, w2 = 0.0495	230.63
350.08 K, w2 = 0.0495	232.05
352.35 K, w2 = 0.0169	289.81
353.26 K, w2 = 0.0495	232.65
355.87 K, w2 = 0.0051	320.97
356.41 K, w2 = 0.0495	233.93
357.85 K, w2 = 0.00482	320.3
358.14 K, w2 = 0.0169	293.37
358.58 K, w2 = 0.0051	322.63
361.53 K, w2 = 0.0495	236.39
363.43 K, w2 = 0.0169	295.6
364.71 K, w2 = 0.0495	237.6
367.1 K, w2 = 0.00482	323.63
367.89 K, w2 = 0.0495	238.53
